What follows are compounds tested against T1, bradykinin 1 receptor (B1R) of the rat (Rattus norvegicus, UniProt P97583) (assay: Functional investigation on the rat bradykinin 1 receptor (B1R), Ca2+ FLIPR assay in CHO K1 rB1R cells). Conditions: CHO-K1, B1R antagonism rat; test substance 10 μM; Ca2+ FLIPR, CHO K1 rB1R cells; read-out: B1R Ant. r [10 μM] % Inhibition.
T1 construct: expressed in transfected cells; host or cells: CHO K1 cells
T1 sequence (P97583 1-337): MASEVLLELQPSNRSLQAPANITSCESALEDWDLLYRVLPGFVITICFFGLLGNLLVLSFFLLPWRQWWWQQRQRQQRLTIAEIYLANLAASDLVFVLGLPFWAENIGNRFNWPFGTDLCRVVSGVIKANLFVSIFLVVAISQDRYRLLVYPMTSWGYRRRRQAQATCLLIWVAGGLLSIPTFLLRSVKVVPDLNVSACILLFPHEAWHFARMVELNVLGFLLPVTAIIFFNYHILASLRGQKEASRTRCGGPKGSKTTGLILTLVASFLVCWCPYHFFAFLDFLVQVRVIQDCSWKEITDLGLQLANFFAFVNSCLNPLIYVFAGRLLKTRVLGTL
Assay type: cell-based
Procedure, shortened: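 Cells were dye-loaded with Fluo-4 plus probenecid, then test substances added and Ca2+ influx compared with agonist control for % activation. After 10-20 min, EC80 agonist (Lys-Des-Arg9-bradykinin human; Des-Arg9-bradykinin rat) was applied; suppression gave % inhibition and IC50 values.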
In the case of `CN(C)C(c1cccs1)C1CCC(CCNC(=O)COCCN(C)S(=O)(=O)c2ccc(Cl)cc2Cl)CC1` (stereo not drawn) [Example 9, 2-(2-(2,4-dichloro-N-methylphenylsulfonamido)ethoxy)-N-(2-(4-((dimethylamino) (thiophen-2-yl)methyl)cyclohexyl)ethyl)acetamide], the inhibition at 10 µM is reported as 43%. Compound `CN(C)C(c1cccs1)C1CCC(NC(=O)COCCN(C)S(=O)(=O)c2ccc(F)cc2)CC1` (stereo not drawn) [Example 10, N-(4-((dimethylamino)(thiophen-2-yl)methyl)cyclohexyl)-2-(2-(4-fluoro-N-methylphenylsulfonamido)ethoxy)acetamide] has an inhibition at 10 µM of 9%. `CN(C)C(c1cccs1)C1CCC(NC(=O)COC2CCN(S(=O)(=O)c3cccc(C(F)(F)F)c3)C2)CC1` (stereo not drawn) [Example 11, N-(4-((dimethylamino)(thiophen-2-yl)methyl)cyclohexyl)-2-(1-(3-(trifluoromethyl)phenylsulfonyl)pyrrolidin-3-yloxy)acetamide] was tested, and the inhibition at 10 µM was 36%. `Cc1cc(C)c(S(=O)(=O)N2CCC(OCC(=O)NC3CCC(C(c4cccs4)N(C)C)CC3)C2)c(C)c1` (stereo not drawn) [Example 12, N-(4-((dimethylamino)(thiophen-2-yl)methyl)cyclohexyl)-2-(1-(mesitylsulfonyl)pyrrolidin-3-yloxy)acetamide] showed an inhibition at 10 µM of 30%. With `CN(C)C(c1ccccc1)C1CCC(CNC(=O)COCCN(C)S(=O)(=O)c2c(Cl)cccc2Cl)CC1` (stereo not drawn) [Example 13, 2-(2-(2,6-dichloro-N-methylphenylsulfonamido)ethoxy)-N-((4-((dimethylamino)(phenyl)methyl)cyclohexyl)methyl)acetamide] the inhibition at 10 µM was 44%. In the case of `CN(C)C(c1ccccc1)C1CCC(CNC(=O)COCCN(C)S(=O)(=O)c2c(Cl)cc(Cl)cc2Cl)CC1` (stereo not drawn) [Example 14, N-((4-((dimethylamino)(phenyl)methyl)cyclohexyl)methyl)-2-(2-(2,4,6-trichloro-N-methylphenylsulfonamido)ethoxy)acetamide], the inhibition at 10 µM is reported as 40%. `CN(C)C(c1ccccc1)C1CCC(CNC(=O)COCCN(Cc2ccccc2)S(=O)(=O)c2ccccc2)CC1` (stereo not drawn) [Example 15, 2-(2-(N-benzylphenylsulfonamido)ethoxy)-N-((4-((dimethylamino)(phenyl)methyl)cyclohexyl)methyl)acetamide] showed an inhibition at 10 µM of -18%. For `CCN(CCOCC(=O)NCC1CCC(C(c2cccs2)N(C)C)CC1)S(=O)(=O)c1c(C)cc(OC)c(C)c1C` (stereo not drawn) [Example 16, N-((4-((dimethylamino)(thiophen-2-yl)methyl)cyclohexyl)methyl)-2-(2-(N-ethyl-4-methoxy-2,3,6-trimethylphenylsulfonamido)ethoxy)acetamide], the inhibition at 10 µM was 59%. For `CN(C)C(c1ccccc1)C1CCC(CNC(=O)COCC2CCCCN2S(=O)(=O)c2ccc(Cl)c(Cl)c2)CC1` (stereo not drawn) [Example 17, 2-((1-(3,4-dichlorophenylsulfonyl)piperidin-2-yl)methoxy)-N-((4-((dimethylamino)(phenyl)methyl)cyclohexyl)methyl)acetamide], the inhibition at 10 µM was 22%. `CN(C)C(c1ccccc1)C1CCC(CNC(=O)COCC2CCCN2S(=O)(=O)c2ccc(Cl)c(Cl)c2)CC1` (stereo not drawn) [Example 18, 2-((1-(3,4-dichlorophenylsulfonyl)pyrrolidin-2-yl)methoxy)-N-((4-((dimethylamino)(phenyl)methyl)cyclohexyl)methyl)acetamide] was tested, and the inhibition at 10 µM was 11%. `COc1ccc(S(=O)(=O)N2Cc3ccccc3CC2COCC(=O)NCC2CCC(C(c3ccccc3)N(C)C)CC2)cc1` (stereo not drawn) [Example 19, N-((4-((dimethylamino)(phenyl)methyl)cyclohexyl)methyl)-2-((2-(4-methoxyphenylsulfonyl)-1,2,3,4-tetrahydroisoquinolin-3-yl)methoxy)acetamide] was tested, and the inhibition at 10 µM was 4%. `COc1cc(C)c(S(=O)(=O)N2CCN(CCOCC(=O)NC3CCC(C(c4ccccc4)N(C)C)CC3)CC2)c(C)c1C` (stereo not drawn) [Example 20, N-(4-((dimethylamino)(phenyl)methyl)cyclohexyl)-2-(2-(4-(4-methoxy-2,3,6-trimethylphenylsulfonyl)piperazin-1-yl)ethoxy)acetamide] showed an inhibition at 10 µM of -9%. In the case of `CN(C)C(c1cccs1)C1CCC(CCNC(=O)COC2CCN(S(=O)(=O)c3ccc(Cl)cc3Cl)C2)CC1` (stereo not drawn) [Example 21, 2-(1-(2,4-dichlorophenylsulfonyl)pyrrolidin-3-yloxy)-N-(2-(4-((dimethylamino)(thiophen-2-yl)methyl)cyclohexyl)ethyl)acetamide], the inhibition at 10 µM is reported as 50%. For `COc1ccc(S(=O)(=O)N2CCC(OCC(=O)NCC3CCC(C(c4ccccc4)N(C)C)CC3)C2)cc1OC` (stereo not drawn) [Example 22, 2-(1-(3,4-dimethoxyphenylsulfonyl)pyrrolidin-3-yloxy)-N-((4-((dimethylamino)(phenyl)methyl)cyclohexyl)methyl)acetamide], the inhibition at 10 µM was 26%. For `COc1ccc(S(=O)(=O)N2CCC(OCC(=O)NCC3CCC(C(c4cccs4)N(C)C)CC3)C2)cc1OC` (stereo not drawn) [Example 23, 2-(1-(3,4-dimethoxyphenylsulfonyl)pyrrolidin-3-yloxy)-N-((4-((dimethylamino)(thiophen-2-yl)methyl)cyclohexyl)methyl)acetamide], the inhibition at 10 µM was 7%. `CN(C)C(c1cccs1)C1CCC(CNC(=O)COC2CCN(S(=O)(=O)c3cccc(C(F)(F)F)c3)C2)CC1` (stereo not drawn) [Example 25, N-((4-((dimethylamino)(thiophen-2-yl)methyl)cyclohexyl)methyl)-2-(1-(3-(trifluoromethyl)phenylsulfonyl)pyrrolidin-3-yloxy)acetamide] gave an inhibition at 10 µM of 30%. Compound `Cc1cc(C)c(S(=O)(=O)N2CCC(OCC(=O)NCC3CCC(C(c4ccccc4)N(C)C)CC3)C2)c(C)c1` (stereo not drawn) [Example 26, N-((4-((dimethylamino)(phenyl)methyl)cyclohexyl)methyl)-2-(1-(mesitylsulfonyl)pyrrolidin-3-yloxy)acetamide] has an inhibition at 10 µM of 38%. In the case of `Cc1cc(C)c(S(=O)(=O)N2CCC(OCC(=O)NCC3CCC(C(c4cccs4)N(C)C)CC3)C2)c(C)c1` (stereo not drawn) [Example 27, N-((4-((dimethylamino)(thiophen-2-yl)methyl)cyclohexyl)methyl)-2-(1-(mesitylsulfonyl)pyrrolidin-3-yloxy)acetamide], the inhibition at 10 µM is reported as 60%. Compound `CN(C)C(c1cccs1)C1CCC(NC(=O)COC2CCN(S(=O)(=O)c3ccc(F)cc3)C2)CC1` (stereo not drawn) [Example 28, N-(4-((dimethylamino)(thiophen-2-yl)methyl)cyclohexyl)-2-(1-(4-fluorophenylsulfonyl)pyrrolidin-3-yloxy)acetamide] has an inhibition at 10 µM of 17%. `COc1cc(C)c(S(=O)(=O)N2CCCC(OCC(=O)NCC3CCC(C(c4ccccc4)N(C)C)CC3)C2)c(C)c1C` (stereo not drawn) [Example 29, N-((4-((dimethylamino)(phenyl)methyl)cyclohexyl)methyl)-2-(1-(4-methoxy-2,3,6-trimethylphenylsulfonyl)piperidin-3-yloxy)acetamide] gave an inhibition at 10 µM of 17%. With `COc1ccc(S(=O)(=O)N2CCCCC2COCC(=O)NCCC2CCC(C(c3cccs3)N(C)C)CC2)cc1` (stereo not drawn) [Example 30, N-(2-(4-((dimethylamino)(thiophen-2-yl)methyl)cyclohexyl)ethyl)-2-((1-(4-methoxyphenylsulfonyl)piperidin-2-yl)methoxy)acetamide] the inhibition at 10 µM was 72%. `CN(C)C(c1cccs1)C1CCC(CNC(=O)COC2CCCCC2N(C)S(=O)(=O)c2ccc(Cl)c(Cl)c2)CC1` (stereo not drawn) [Example 31, 2-(2-(3,4-dichloro-N-methylphenylsulfonamido)cyclohexyloxy)-N-((4-((dimethylamino)(thiophen-2-yl)methyl)cyclohexyl)methyl)acetamide] gave an inhibition at 10 µM of 11%. Work on `CN(C)C(c1cccs1)C1CCC(CCNC(=O)COCCN(C)S(=O)(=O)c2cccc(C(F)(F)F)c2)CC1` (stereo not drawn) [Example 32, N-(2-(4-((dimethylamino)(thiophen-2-yl)methyl)cyclohexyl)ethyl)-2-(2-(N-methyl-3-(trifluoromethyl)phenylsulfonamido)ethoxy)acetamide] yielded an inhibition at 10 µM of 14%. `CN(C)C(c1ccccc1)C1CCC(NC(=O)COCCN(C)S(=O)(=O)c2ccc(Cl)cc2Cl)CC1` (stereo not drawn) [Example 33, 2-(2-(2,4-dichloro-N-methylphenylsulfonamido)ethoxy)-N-(4-((dimethylamino)(phenyl)methyl)cyclohexyl)acetamide] gave an inhibition at 10 µM of 9%. Compound `CN(C)C(c1ccccc1)C1CCC(NC(=O)COCCN(C)S(=O)(=O)c2c(F)c(F)c(F)c(F)c2F)CC1` (stereo not drawn) [Example 136, N-(4-((dimethylamino)(phenyl)methyl)cyclohexyl)-2-(2-(2,3,4,5,6-pentafluoro-N-methylphenylsulfonamido)ethoxy)acetamide] has an inhibition at 10 µM of -2%. `COc1cc(C)c(S(=O)(=O)N(C)CCOCC(=O)NCC2CCC(C(c3ccccc3)N(C)C)CC2)c(C)c1` (stereo not drawn) [Example 137, N-((4-((dimethylamino)(phenyl)methyl)cyclohexyl)methyl)-2-(2-(4-methoxy-N,2,6-trimethylphenylsulfonamido)ethoxy)acetamide] gave an inhibition at 10 µM of 100%. Work on `CN(C)C(c1cccs1)C1CCC(CCNC(=O)COC2CCN(S(=O)(=O)c3ccc(F)cc3)C2)CC1` (stereo not drawn) [Example 138, N-(2-(4-((dimethylamino)(thiophen-2-yl)methyl)cyclohexyl)ethyl)-2-(1-(4-fluorophenylsulfonyl)pyrrolidin-3-yloxy)acetamide] yielded an inhibition at 10 µM of 30%.

Reference: US8106055B2, “Substituted amide compounds” (Gruenenthal GmbH, priority 2007, dated 2012)
